PubChem BioAssay (NCI)
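Cultured in 96-well plates, cells were exposed to test compound for 48 hours across five concentrations. TGI: total growth inhibition.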

What was measured:
Experiment in all cases: NCI-60 cell line screen, 48 h
[1] = test system: EKVX NSCLC
[2] = test system: OVCAR-8 ovarian
[3] = test system: OVCAR-4 ovarian
[4] = test system: M14 melanoma
[5] = test system: HOP-62 NSCLC
[6] = test system: HL-60(TB) leukemia
[7] = test system: NCI-H460 lung
[8] = test system: SK-OV-3 ovarian
[9] = test system: LOX IMVI melanoma
[10] = test system: OVCAR-3 ovarian
[11] = test system: DLD-1 colon
[12] = test system: SF-295 CNS
[13] = test system: DMS 114 small cell lung
[14] = test system: SW-620 colon
[15] = test system: HCT-15 colon
[16] = test system: HT29 colon
[17] = test system: SF-539 CNS
[18] = test system: OVCAR-5 ovarian
[19] = test system: LXFL 529 NSCLC
[20] = test system: NCI-H23 lung
[21] = test system: KM20L2 colon
[22] = test system: A498 renal
[23] = test system: COLO 205 colon
[24] = test system: 786-0 renal
[25] = test system: TK-10 renal
[26] = test system: UO-31 renal
[27] = test system: NCI-H522 lung
[28] = test system: HCC-2998 colon
[29] = test system: NCI-H226 lung
[30] = test system: HCT-116 colon
[31] = test system: DMS 273 small cell lung
[32] = test system: XF 498 CNS
[33] = test system: SN12C renal
[34] = test system: UACC-257 melanoma
[35] = test system: A549 NSCLC
[36] = test system: K-562 leukemia
[37] = test system: SK-MEL-2 melanoma
[38] = test system: SNB-19 CNS
[39] = test system: SR leukemia
[40] = test system: M19-MEL melanoma
[41] = test system: ACHN renal
[42] = test system: SK-MEL-28 melanoma
[43] = test system: SF-268 CNS
[44] = test system: RPMI-8226 leukemia
[45] = test system: U251 CNS
[46] = test system: CAKI-1 renal
[47] = test system: MOLT-4 leukemia
[48] = test system: SNB-75 CNS
[49] = test system: SNB-78 CNS
[50] = test system: SK-MEL-5 melanoma
[51] = test system: UACC-62 melanoma
[52] = test system: IGROV1 ovarian
[53] = test system: KM12 colon
[54] = test system: RXF 393 renal
[55] = test system: MDA-MB-435
[56] = test system: T-47D breast
[57] = test system: MALME-3M melanoma
[58] = test system: CCRF-CEM leukemia
[59] = test system: MDA-MB-231 breast
[60] = test system: HOP-92 NSCLC
[61] = test system: HS 578T breast
[62] = test system: NCI/ADR-RES ovarian
[63] = test system: DU-145 prostate
[64] = test system: MCF7 breast
[65] = test system: MDA-N
[66] = test system: BT-549 breast
[67] = test system: PC-3 prostate

Measured: TGI

O=C(NCCOC(=O)CCCCCCCCC(=O)OCCNC(=O)NC(=O)c1cn(Cc2ccccc2)c(=O)[nH]c1=O)NC(=O)c1cn(Cc2ccccc2)c(=O)[nH]c1=O
not listed: [54] | [55] | [56] | [57] | [58] | [59] | [60] | [61] | [62] | [63] | [64] | [65] | [66] | [67]
> 100 µM: all other assays above

Nc1ncnc2c1ncn2CCCNO
not listed: [11] | [13] | [19] | [21] | [31] | [32] | [40] | [49]
> 100 µM: all other assays above

CCCCCCCC(=O)OC[n+]1cccc(-c2c(COC(=O)NC(C)C)c(COC(=O)NC(C)C)c3n2CCC3)c1
> 82.1 µM: [6]
> 89.4 µM: [22]
> 84 µM: [58]
> 87.5 µM: [46]
> 89.5 µM: [17]
99.4 µM: [47]
97.2 µM: [54]
not listed: [11] | [13] | [19] | [21] | [31] | [32] | [40] | [49]
> 100 µM: all other assays above
